In patent publication US5840721A, “Imidazole derivatives as MDR modulators” (Ontogen Corporation, priority 1997, dated 1998):

Experiments:
CEM/VLB1000 cell line [1] = test: Cytotoxicity potentiation: enhancement of vinblastine cytotoxicity in MDR cell line (alamar blue); assay type: cell-based, human; settings: Homo sapiens, midpoint of minimum and maximum cytotoxicity induced by 3-5 μg/mL vinblastine and compound, 48 hours incubation, alamar blue 24 hours, read-out: Cytotocicity Potentiation (EC50)
Procedure: Multidrug-resistant cell lines are easily obtainable for in vitro determination of drug sensitization by compounds of the present invention. In vitro potentiation of antineoplastic cytotoxicity by the imidazole derivatives of the present invention was measured in both CEM/VLB1000 and SK/VLB1000 cell lines. The multidrug resistant cell lines were obtained from Dr. Victor Ling, Ontario Cancer Institute, Toronto, Canada. The CEM/VLB 1000 cell line was maintained as a suspension in minimum essential medium supplemented with 10% fetal bovine serum in a humidied atmosphere of 95% air and 5% CO2 while the SK/VLB 1000 cell line was maintained as adherent cells using the identical medium conditions as the CEM cells. The CEM/VLB 1000 cells were seeded at a density of 5×10^4 cells/well in a 96 well microtiter plate while the SK/VLB 1000 cell line was seeded at a density of 2,500 cells/well after trypsinization.

CEM/VLB1000 cell line [2] = test: [3H]VLB accumulation in CEM/VLB1000 cells; assay type: cell-based; settings: Homo sapiens, midpoint of minimum and maximum increase in accumulation of 3H-vinblastine (275 nM), 3 hours at 37° C
Procedure: ^3 H-vinblastine accumulation was also measured in the CEM/VLB1000 cell line. Corning Easy-Wash 96 well plates were pretreated with PBS and 1% BSA for 60 minutes and then removed. CEM/VLB1000 cells were seeded at 2×10^5, 40 μL volume. Plates were incubated at 37° C. for 30-60 minutes prior to use. The reference reversing agent, verapamil, or the compound of the present invention was added to the well followed by addition of media containing ^3 H-vinblastine (final concentration=275nM). Plates were allowed to incubate for 3 hours at 37° C. Cells were harvested onto pretreated Wallace filtermats A (pretreated with 0.1% polyethyleneimine) using a TomTek harvester-96. After filtering, the filtermats were allowed to dry completely. Meltix B scintillant was then added to the filtermats. The filters were then placed in a 90° C. oven for approximately 3-5 minutes and then removed. Scintillant was allowed to solidify on the filtermats. Filtermats were then placed in sample bags and read on a Wallace BetaPlate scintillation counter. The effects of compounds of the present invention in the cytotoxicity potentiation assays and vinblastine (VLB) accumulation assay are given in the Table below:
^2 Values presented are the midpoint (EC50 ) of the minimum and
maximum increase in accumulation of ^3 Hvinblastine caused by the
specfic compound of the present invention.

EC50 (CEM/VLB1000 cell line [2]) [nM]	SMILES	EC50 (CEM/VLB1000 cell line [1]) [nM]
1700	CN(C)C(=O)/C=C/c1ccc(-c2nc(-c3ccc(N(C)C)cc3)c(-c3ccc(N(C)C)cc3)[nH]2)cc1 [Example 111]	620
2000	COC/C=C/c1ccc(-c2nc(-c3ccc(N(C)C)cc3)c(-c3ccc(N(C)C)cc3)[nH]2)cc1 [Example 74, 2-[4-(3-methoxy-trans-1-propen-1-yl)phenyl]-4,5-bis (4-N,N-dimnethylaminophenyl) imidazole]	130
1200	CN(C)c1ccc(-c2nc(-c3ccc(/C=C/COCc4ccccc4)cc3)[nH]c2-c2ccc(N(C)C)cc2)cc1 [Example 77, 2-[4-(3-benzyloxy-trans-1-propen-1-yl)phenyl]-4,5-bis (4-N,N-dimethylaminophenyl) imidazole]	340
